Results taken from BindingDB's records for doi:10.1016/S1074-5521(02)00240-5 (Nippon Roche Research Center, 2002).

Key:
[1] = target: T1, Glycylpeptide N-tetradecanoyltransferase (Candida albicans (strain SC5314 / ATCC MYA-2876), UniProt P30418); assay: Inhibition Assay
T1 sequence (P30418 whole entry): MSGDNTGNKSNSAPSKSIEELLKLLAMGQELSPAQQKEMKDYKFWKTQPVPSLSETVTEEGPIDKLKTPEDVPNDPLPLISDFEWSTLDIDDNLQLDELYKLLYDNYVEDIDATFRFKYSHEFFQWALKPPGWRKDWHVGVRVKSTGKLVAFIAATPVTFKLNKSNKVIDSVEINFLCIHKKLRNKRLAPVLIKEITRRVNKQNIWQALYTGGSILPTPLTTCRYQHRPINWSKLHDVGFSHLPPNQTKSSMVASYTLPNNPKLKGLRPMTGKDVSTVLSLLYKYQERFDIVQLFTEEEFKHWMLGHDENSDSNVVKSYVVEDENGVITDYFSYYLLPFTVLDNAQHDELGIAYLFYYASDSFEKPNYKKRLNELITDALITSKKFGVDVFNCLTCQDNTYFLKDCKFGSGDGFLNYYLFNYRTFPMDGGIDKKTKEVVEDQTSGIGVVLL

[2] = target: T2, Glycylpeptide N-tetradecanoyltransferase 1 (Homo sapiens, UniProt P30419); assay: Inhibition Assay
T2 sequence (P30419 whole entry): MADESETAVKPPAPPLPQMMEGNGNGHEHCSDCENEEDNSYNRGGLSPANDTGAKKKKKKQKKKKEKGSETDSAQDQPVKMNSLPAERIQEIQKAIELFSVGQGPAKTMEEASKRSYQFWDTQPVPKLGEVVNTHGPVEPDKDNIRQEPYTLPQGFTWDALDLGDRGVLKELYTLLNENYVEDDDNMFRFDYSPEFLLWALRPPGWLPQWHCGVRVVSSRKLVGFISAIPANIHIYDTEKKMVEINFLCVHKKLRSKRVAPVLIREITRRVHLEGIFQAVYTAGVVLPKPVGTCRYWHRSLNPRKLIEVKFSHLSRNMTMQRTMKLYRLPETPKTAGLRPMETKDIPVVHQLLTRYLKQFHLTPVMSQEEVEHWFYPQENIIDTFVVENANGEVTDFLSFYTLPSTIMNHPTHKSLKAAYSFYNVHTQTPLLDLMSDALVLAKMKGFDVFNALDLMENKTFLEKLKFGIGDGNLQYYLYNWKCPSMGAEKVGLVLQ

| IC50 [1] [nM] | IC50 [2] [nM] | SMILES |
| --- | --- | --- |
| 830 |  | COc1ccc(C(=O)NN=Cc2ccccc2C(=O)O)cc1OC [2-[(veratroylhydrazono)methyl]benzoic acid] |
| 1100 | > 570000 | O=C(Nc1ccc(S(=O)(=O)NC2=NCCCCC2)cc1)C1COc2ccccc2O1 (stereo not drawn) [MLS000761278] |
